From patent publication US7598032B2, “Thermostable DNA polymerases incorporating nucleoside triphosphates labeled with fluorescent dyes” (Roche Molecular Systems, priority 1997, dated 2009)

Biological target: F730Y Tma30 DNA polymerase (nucleotides 1-570 of Taq DNA polymerase with G46D fused to nucleotides 571-2679 of Tma DNA polymerase with D323A, E325A, F730Y)
Assay: Limiting template primer extension competition assay (ddNTP incorporation), F730Y Tma30
Type: biochemical, Thermus aquaticus / Thermotoga maritima
Conditions: inhibition of DNA synthesis ([α-33P]dCMP incorporation); 20 μM each dNTP, M13 mp18/DG48, pH 8.3, 10 min; 2 units enzyme; read-out: Concentration of Zowie-ddCTP or ddCTP needed for 50% inhibition
Description: The ability of the enzymes of this invention to efficiently incorporate nucleotides labeled with fluorescein family dyes is measured by ddNTP incorporation assays. One such assay is a primer extension competition assay conducted under conditions of limiting template. In this assay, a primer DG48 (5′-[…]), (SEQ ID NO: 11), bound to M13 mp18 template (Innis et al., 1988, Proc. Natl. Acad. Sci. USA 85:9436) is extended in the presence of [α-^33P]dCTP and excess enzyme with various levels of a fluorescently labeled ddNTP, Zowie-ddCTP. Because the incorporation of a ddCTP residue terminates the extension reaction, the more readily a DNA polymerase incorporates a ddCTP into an extended primer, the less [α-^33P]dCTP can be incorporated. Thus, as the efficiency of fluorescently labeled ddCTP incorporation increases, the extent of inhibition of DNA synthesis is increased. The reactions were also performed with various levels of an unlabeled ddCTP. […]
The relative abilities of G46D F667Y Taq, G46D F667Y E681K Taq and F730Y Tma30 DNA polymerases to incorporate a fluorescein dye family-labeled ddCTP were compared by use of a limiting template, primer extension competition assay. […] In this competition assay, because the incorporation of a ddCTP terminates the extension reaction, the more readily the polymerase incorporates a ddCTP into an extended primer, the less [α-^33P]dCTP can be incorporated. […]

Q: Nc1ccn([C@H]2CC[C@@H](COP(=O)(O)OP(=O)(O)OP(=O)(O)O)O2)c(=O)n1 [ddCTP] was tested. Which IC50 did it give?
A: Its IC50 is 0.057 µM.
